Experimental data taken from PMC7978038 (Molecular pharmaceutics, 2019).
Read-outs that look alike come from different tables or passages of the source. Each block holds one molecule with its values, some of them ahead of it.

Experiments:
in vivo [1] = details: male, beagle, dog, po, 1 mg/kg
[2] = mice, cited from earlier work
[3] = test system: 100 different transporters, enzymes, and receptors, including several glutamate targets; details: selectivity; cited from earlier work
in vivo [4] = details: male, CD-1, mouse, iv, 10 mg/kg
[5] = oral 2-PMPA; cited from earlier work
[6] = mice, 10 mg/kg 2-PMPA equivalent dose, mean ± SEM, n = 3
[7] = human, microsomes
[8] = mouse, microsomes
[9] = dog, microsomes

Structure (SMILES): O=C(O)CCC(CP(=O)(O)O)C(=O)O (stereo not shown) [Prodrug 2-PMPA, 2-(Phosphonomethyl)-pentanedioic acid]
AUC(0-t) (in vivo [1]): 1.44 µM·h | Cmax (in vivo [1]): 0.4 µM | Tmax (in vivo [1]): 2 h | 2-PMPA plasma AUC0−t ([2]; oral 2-PMPA, ref our previously published manuscript): 0.65 ± 0.13 µM·h | oral bioavailability ([2]; oral): < 1% | activity at 100 different transporters, enzymes, and receptors [3]: no activity | AUC(0-t) (in vivo [4]): 104 ± 19 µM·h | Cmax (in vivo [4]): 109 ± 9.5 µM | Kp (in vivo [4]): 0.015 | oral bioavailability (F) [5]: < 1% | 2-PMPA brain AUC0−t (mice, IV, 10 mg/kg): 1.6 ± 0.2 nmol·h/g | 2-PMPA brain Cmax (mice, IV, 10 mg/kg): 1.2 ± 0.1 nmol/g | 2-PMPA plasma concentration at 30 min post oral administration [6]: 0.25 ± 0.02 nmol/mL

Intestinal microsomal stability, intact prodrug level at the end of 1 h incubation [7]: did not show any intact prodrug level | Intestinal microsomal stability, intact prodrug level at the end of 1 h incubation [8]: did not show any intact prodrug level | Intestinal microsomal stability, intact prodrug level at the end of 1 h incubation [9]: did not show any intact prodrug level
Structure (SMILES): Cc1oc(=O)oc1COC(=O)CCC(CP(=O)(OCc1oc(=O)oc1C)OCc1oc(=O)oc1C)C(=O)OCc1oc(=O)oc1C (stereo not shown) [Prodrug 4]
metabolites (including 2 and 3) detected in plasma (mouse, in vivo, po): No metabolites, including 2 and 3, were detected

Structure (SMILES): CC(C)OC(=O)OCOC(=O)C(CCC(=O)O)CP(=O)(OCOC(=O)OC(C)C)OCOC(=O)OC(C)C (stereo not shown) [Prodrug 21b]
fold enhancement in 2-PMPA systemic availability versus orally administered 2-PMPA ([2]; oral): 20 fold | oral bioavailability ([2]; oral): 11.5%
